Results taken from patent US20090181980A1, “Synergistic Pharmaceutical Composition” (priority 2006, published 2009).

Test system: M. tuberculosis
Test: MIC alone and in combination (synergy test)
Format: cell-based, Mycobacterium tuberculosis
Details: for change of MIC when tested together: combination of Ethambutol and Isoniazid (negative control, FIG. 2)
Experimental: A sulfonylurea ALS inhibitor and a triazolopyrimidine ALS inhibitor were tested alone and in combination with Rifampicin. The positive controls used were Isoniazid and Streptomycin where one finds a synergistic action. The individual MICs of Isoniazid (INH) and Streptomycin (Strep) are 0.03 and 1.0 μg/ml respectively. When used in combination, these values drop to 0.0075 and 0.12 μg/ml respectively (cf. FIG. 1). This is 4 fold and 8 fold less.
The negative control used was a combination of Ethambutol (Etham) and Isoniazid (Inh) where there is no synergistic activity. […] In. Clinical Microbiology Procedures Handbook; Vol. 1-2 by Isenberg, Henry. D. Ed Washington D.C.; American Society for Microbiology/1992; Pages 5.18.1 to 5.18.28).
When used in combination, these MICs drop 0.0038 and 0.03 ug/ml respectively, which is 8-fold less for both the drugs.
When used in combination, these MICs drop to 0.0038 & 0.03 ug/ml which is 4 & 8-fold less for both the drugs.

[1] = combination of Isoniazid and Streptomycin versus individual MIC

Row | Compound | change of MIC when tested together | fold less MIC in combination [1] [fold] | fold less MIC in combination (combination of Rifampicin and SU versus individual MIC) [fold] | fold less MIC in combination (combination of Rifampicin and TP versus individual MIC) [fold]
1 | CC[C@@H](CO)NCCN[C@@H](CC)CO [Ethambutol] | do not drop significantly | – | – | –
2 | NNC(=O)c1ccncc1 [Isoniazid] | do not drop significantly | 4 | – | –
3 | CO[C@H]1/C=C/O[C@@]2(C)Oc3c(C)c(O)c4c(O)c(c(/C=N/N5CCN(C)CC5)c(O)c4c3C2=O)NC(=O)/C(C)=C\C=C\[C@H](C)[C@H](O)[C@@H](C)[C@@H](O)[C@@H](C)[C@H](OC(C)=O)[C@@H]1C [Rifampicin] | – | – | 8 | 4
4 | [H]/N=C(/N)N[C@H]1[C@H](O)[C@@H](O)[C@H](O[C@@H]2O[C@@H](C)[C@](O)(C=O)[C@H]2O[C@@H]2O[C@@H](CO)[C@H](O)[C@@H](O)[C@@H]2NC)[C@@H](N/C(N)=N\[H])[C@@H]1O [Streptomycin] | – | 8 | – | –
